Laboratory results from ChEMBL document CHEMBL1159196, “Lignans interfering with 5 alpha-dihydrotestosterone binding to human sex hormone-binding globulin” (J Nat Prod, 1998).

What was measured:
[1] = molecular target: T1, Sex hormone-binding globulin (Homo sapiens) (UniProt P04278); assay: Binding affinity to SHBG
T1 sequence (whole entry): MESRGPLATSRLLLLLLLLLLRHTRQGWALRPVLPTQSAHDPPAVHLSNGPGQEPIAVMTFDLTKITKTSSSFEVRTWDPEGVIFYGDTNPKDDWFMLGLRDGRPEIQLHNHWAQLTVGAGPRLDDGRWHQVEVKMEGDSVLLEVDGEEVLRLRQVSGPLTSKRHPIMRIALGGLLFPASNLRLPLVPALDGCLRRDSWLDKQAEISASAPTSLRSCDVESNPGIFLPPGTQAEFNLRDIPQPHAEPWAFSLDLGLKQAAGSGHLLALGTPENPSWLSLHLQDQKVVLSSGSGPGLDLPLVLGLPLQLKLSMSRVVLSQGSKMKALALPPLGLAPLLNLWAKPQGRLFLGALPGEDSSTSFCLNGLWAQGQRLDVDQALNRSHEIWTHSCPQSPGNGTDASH

[2] = molecular target: T2, Sex hormone-binding globulin (Homo sapiens, UniProt P04278); assay: Displacement of [3H]DHT from human serum SHBG
T2 sequence (P04278 whole entry): T1 sequence (whole entry)

[3] = molecular target: T1, Sex hormone-binding globulin (Homo sapiens); assay: Binding affinity to human serum SHBG at 4 degC by competitive inhibition assay
[4] = molecular target: T1, Sex hormone-binding globulin (Homo sapiens); assay: Binding affinity to SHBG at 4 degC

SMILES: C[C@]12CC[C@@H]3c4ccc(O)cc4CC[C@H]3[C@@H]1CC[C@@H]2O
- Ka [1]: 5 ×10⁸ /M

SMILES: O=C1OCC(Cc2cccc(O)c2)C1Cc1cccc(O)c1 (racemic)
- IC50 [2]: 620 µM

SMILES: COc1cc(C[C@H]2COC[C@@H]2Cc2ccc(O)c(OC)c2)ccc1O
- Ka [3]: 3.2 ×10⁶ /M
- Ka [4]: 0.98 ×10⁹ /M

SMILES: COc1cc(C[C@H]2COC(=O)[C@@H]2Cc2ccc(O)c(OC)c2)ccc1O [MATAIRESINOL]
- IC50 [2]: 52 µM

SMILES: C[C@]12CC[C@H]3[C@@H](CCC4=CC(=O)CC[C@@]43C)[C@@H]1CC[C@@H]2O
- Ka [1]: 1 ×10⁹ /M

SMILES: C[C@]12CCC(=O)C[C@@H]1CC[C@@H]1[C@@H]2CC[C@]2(C)[C@@H](O)CC[C@@H]12
- Ka [1]: 2 ×10⁹ /M

SMILES: COc1cc(C[C@@H](CO)[C@H](CO)Cc2ccc(O)c(OC)c2)ccc1O [(+)-SECOISOLARICIRESINOL]
- IC50 [2]: 230 µM
